Test results as given in patent publication US20240132479A1, “THERAPEUTIC COMPOUNDS AND USES THEREOF” (Board of Trustees of Michigan State University, priority 2021, published 2024).
≈ marks a conversion by molar mass, not a printed value. Where two headings read alike, the source gives them in different places.

Key:
Mtb H37Rv = test: MIC determination in microdilution assay, Mtb H37Rv; type: cell-based; settings: Mycobacterium tuberculosis
[1] = tested on: M. abscessus (ATCC 19977); test: MIC determination in microdilution assay, M. abscessus; type: cell-based, Mycobacterium abscessus; settings: Mycobacteroides abscessus, ATCC19977; read-out: MIC M. abcessus 19977
[2] = tested on: M. avium (ATCC 700891 MAC 101); test: MIC determination in microdilution assay, M. avium; type: cell-based; settings: Mycobacterium avium, ATCC700891
[3] = tested on: Mycobacterium avium complex (ATCC 700891 MAC 101); test: Ex vivo efficacy, M. avium; type: cell-based
Experimental: (§1) The compounds of Examples 2, 21A, and 19 were tested for 1) for ex vivo efficacy and 2) cytotoxicity. Ex vivo efficacy was determined by inhibition of Mycobacterium tuberculosis (Mtb) H37Rv, Mycobacterium avium complex (ATCC 700891 MAC 101), and Mycobacterium abscessus (ATCC 19977). Cytotoxicity tests were carried out against three human cell lines, THP-1 (ATCC TIB-202), HepG2 (ATCC HB-8065), and HeLa (ATCC CCL-2), IC50 values were calculated from dose response curves to determine cytotoxicity of test compounds. […] Of the three compounds tested for ex vivo efficacy against NTM strains, there was no activity (>32 mg/L) against M. avium and one compound with activity against M. abscessus. […] These compounds were not cytotoxic (>128 mg/L) against HepG2 and HeLa cells. The compounds average therapeutic index for HepG2 was 12.4-48.3 and 96.7-389 for HeLa.

[4] = tested on: Mycobacterium abscessus (ATCC 19977); test: Ex vivo efficacy, M. abscessus; type: cell-based
Experimental: as §1

in vitro = type: cell-based; settings: human
Experimental: as §1

[5] = HeLa cells, read-out: HeLa Cytotoxicity (IC50 μg/ml)
[6] = HepG2 cells, read-out: HepG2 Cytotoxicity (IC50 μg/ml)
[7] = THP-1 cells, read-out: THP-1 Cytotoxicity (IC50 μg/ml)

Row | Structure (SMILES) | MIC (Mtb H37Rv) | MIC [1] | MIC [2] | M. avium ex vivo efficacy (>90% inhibition μg/ml) [3] | M. abscessus ex vivo efficacy (>90% inhibition μg/ml) [4] | IC50 (in vitro; [5]) | IC50 (in vitro; [6]) | IC50 (in vitro; [7]) | melting point
1 | Cc1cc2nc(SCC(=O)N(C(C)C)C(C)C)[nH]c2cc1C [Example 2, 2-[(5,6-dimethyl-1H-1,3-benzodiazol-2-yl)sulfanyl]-N,N-bis(propan-2-yl)acetamide] | 0.5 µg/mL (≈ 1.57 µM) | 4 µg/mL (≈ 12.5 µM) | > 64 µg/mL | 0.5 µg/mL | 0.25 µg/mL | 4 µg/mL (≈ 12.5 µM) | 0.5 µg/mL (≈ 1.57 µM) | 0.5 µg/mL (≈ 1.57 µM) | 172 °C
2 | CC(C)N(C(=O)CCc1nc2cc(Cl)c(Cl)cc2[nH]1)C(C)C [Example 19] | ≤ 0.125 µg/mL | 1 µg/mL (≈ 2.92 µM) | 8 µg/mL (≈ 23.4 µM) | ≤0.125 µg/mL | ≤0.125 µg/mL | 1 µg/mL (≈ 2.92 µM) | ≤ 0.125 µg/mL | ≤ 0.125 µg/mL | –
3 | Cc1cc2nc(CCC(=O)N(C(C)C)C(C)C)[nH]c2cc1C [Example 21A] | 0.25 µg/mL (≈ 0.829 µM) | 2 µg/mL (≈ 6.63 µM) | 16 µg/mL (≈ 53.1 µM) | 0.25 µg/mL | 0.25 µg/mL | 2 µg/mL (≈ 6.63 µM) | ≤ 0.125 µg/mL | ≤ 0.125 µg/mL | –
